Among the data in ChEMBL document CHEMBL1123242, “Derivatives of 1-(1,3-benzodioxol-5-yl)-2-butanamine: representatives of a novel therapeutic class” (1986) are Result values, retold here.

What all share (format): functional
Test [1] concerns Rattus norvegicus. Nature of the test: Compound was tested for hallucinogenic activity in rats at 0.69 dose(mg/kg); Number of rats selecting the LSD lever/ number of rats responding (0/8).
In test [2] the test system is Rattus norvegicus. The test can be described thus: Compound was tested for hallucinogenic activity in rats at 2.41 dose(mg/kg); Number of rats selecting the LSD lever/ number of rats responding (3/8).
Test [3] deals with Rattus norvegicus. Nature of the test: Compound was tested for hallucinogenic activity in rats at 2.76 dose(mg/kg); Number of rats selecting the LSD lever/ number of rats responding (4/8).
For test [4], the system named is Rattus norvegicus. The test can be described thus: Compound was tested for hallucinogenic activity in rats at 3.45 dose (mg/kg); Number of rats selecting the LSD lever/ number of rats responding (3/8).
Test [5] has as its system Rattus norvegicus. Nature of the test: Compound was tested for hallucinogenic activity in rats at 4.14 dose (mg/kg); Number of rats selecting the LSD lever/ number of rats responding (2/8).
The test system of test [6] is Rattus norvegicus. Nature of the test: Compound was tested for hallucinogenic activity in rats at 1.72 dose (mg/kg); Number of rats selecting the LSD lever/ number of rats responding (2/9).
For test [7], the system named is Rattus norvegicus. Nature of the test: Compound was tested for hallucinogenic activity in rats at 2.07 dose(mg/kg); Number of rats selecting the LSD lever/ number of rats responding (3/10).
Test [8] has as its system Rattus norvegicus. Nature of the test: Compound was tested for hallucinogenic activity in rats at dose 1.38 (mg/kg); 1/8.
Test [9] has as its system Rattus norvegicus. Nature of the test: Compound was tested for hallucinogenic activity in rats at the dose 0.17(mg/kg); Number of rats selecting the LSD lever/ number of rats responding (2/8).
Test [10] concerns Rattus norvegicus. Nature of the test: Compound was tested for hallucinogenic activity in rats at the dose 0.34(mg/kg); Number of rats selecting the LSD lever/ number of rats responding (2/8).
In test [11] the test system is Rattus norvegicus. Nature of the test: Compound was tested for hallucinogenic activity in rats at 5.52 dose(mg/kg); 1/2, highest dose tested.

Turning to `CC[C@@H](N)Cc1ccc2c(c1)OCO2`, the Result is listed as 0 in test [1]; 3 in test [2]; 4 in test [3]; 3 in test [4]; 2 in test [5]; 2 in [6]. Also, the Result worked out at 3 in test [7]; 1 in test [8]; 2 in test [9]; 2 in [10]; 1 in [11].
